# Data from patent US20080200433A1, “Molecular Chaperone Function Regulator” (priority 2004, published 2008).
# Columns and labels:
# HSP70 [1] = assay: Time-dependent HSP70 induction in A-431 cells (Western blot); format: cell-based, human; details: 10 μM, vs DMSO control (FIG. 1)
# Description: (§1) DMSO (0.1%) was added to the control. After the addition, the cells were collected 6, 9, 12 and 24 hr later and cell extracts were prepared. Expression of HSP70 protein in the cell extracts was examined by Western blot using an HSP70 specific antibody. T/C (%) was determined using the amount of chemical luminescence on a PVDF film due to an HRP-labeled secondary antibody as the HSP70 expression amount and HSP70 expression amount of the cells in the control well as 100.
# HSP70 [2] = assay: Induction of HSP70 in various human tumor-derived cells (Western blot); format: cell-based; details: TE-8, NCI-H520, HPAC, DU145, KPL-4, MKN-45, HL-60 and DLD-1 cells, 10 μM, 9 hr, vs DMSO control (FIG. 2)
# Description: (Method) As to the induction of HSP70 by compound A, induction in various human tumor cells was examined.
# TE-8 cell, NCI-H520 cell, HPAC cell, DU145 cell, KPL-4 cell, MKN-45 cell, HL-60 cell and DLD-1 cell were each were cultured in a 12-well plate.
# DMSO (0.1%) was added to a control well. After the addition, the cells were collected 9 hr later and cell extracts were prepared. Expression of HSP70 protein in the tumor cell extracts was examined by Western blot using an HSP70 specific antibody.
# [3] = tested on: client proteins EGFR, HER2, ERα, AR, AKT and CDK4 of HSP90 chaperone; assay: Suppressive action on HSP90 client protein expression in MCF-7 cells (Western blot); format: cell-based, human; details: 10 μM, 24 hr, vs DMSO control (FIG. 3)
# Description: After the addition of the compound, the cells were collected and divided in two 24 hr later. Cell extracts were prepared from half the cells, and cytoplasmic fraction and nuclear fraction were prepared from the remaining half. […] Expression of client in each tumor cell extract and nuclear fraction was examined by Western blot using an antibody specific to each client.
# [4] = tested on: human breast cancer-derived MCF-7 cell; assay: Suppressive effect on estradiol (E2)-dependent cell growth (XTT); format: cell-based; details: 10 nM E2, Day 10, XTT; compound A 0.037-3 μM, tamoxifen 0.062-5 μM (FIG. 4)
# Source text: (Method) Using human breast cancer-derived MCF-7 cell that expresses estrogen receptor and grows in response to estradiol (E2, 17β-Estradiol, Cat. #E 1024, Sigma Ltd.), the effect of compound A on the cell growth in the presence of E2 was examined. As the control compound, tamoxifen (Cancer Res., 62, 2474-2477, 2002) (Cat. #T 9262, Sigma Ltd.) known to suppress growth of human breast cancer-derived MCF-7 cell by E2 stimulation was used. MCF-7 cells were suspended in a phenol red non-addition DME-F12 mixed medium containing 5% fetal calf serum treated with activated carbon, and cultured at 2×10^4 cells/well in a 24 well plate. […]
# The cell growth activity was measured on Day 10 by the dye method using XTT.
# That is, after the completion of the culture, XTT was added to each well and, after color development for 4 hr, the reaction mixture was transferred to a 96 well plate, and the absorbance at 492 nm was measured.
# The suppression rate was calculated from the following formula.
# Suppression rate (%)={1−[(absorbance of compound addition well in the presence of E2)−(absorbance of control well without E2 addition)]÷[(absorbance of control well in the presence of E2)−(absorbance of control well without E2 addition)]×100
# [5] = tested on: human prostate cancer-derived DU 145 cells; assay: Cell growth suppression by combined hyperthermic treatment and compound (XTT); format: cell-based; details: 0.37-10 μM, 43° C. 4 hr vs 37° C., then 24 hr culture, XTT (FIG. 5)
# Description: (Method) Using human prostate cancer-derived DU 145 cells, the effect of compound A on the cell growth suppressive action during hyperthermic treatment was examined. DU 145 cells were cultured at 1×10^4 cells/well in two 96 well plates. The next day, compound A was added to each plate to 0.37, 1.1, 3.3 and 10 μM, one plate was incubated for 4 hr in a 5% CO2 incubator set to 43° C. (heat treatment), and the other plate was incubated in the same manner for 4 hr in a 5% CO2 incubator set to 37° C. After 4 hr, the wells were washed 3 times with saline, a growth medium was added and cultured in a 5% CO2 incubator at 37° C. for 24 hr.
# The cell growth activity was measured by the dye method using XTT as in Example 4. That is, after the culture, XTT was added to each well and, 4 hr later, the absorbance at 492 nm was measured.
# T/C (%) was determined from the following formula with the absorbance of the control well in the plate without the heat treatment as 100.
# T/C (%)=[absorbance of heat-treated control well or compound-treated well÷absorbance of control well without heat treatment]×100
# [6] = tested on: human breast cancer-derived MCF-7 implanted in nude mouse; assay: Antitumor effect on human breast cancer-derived MCF-7 implanted in nude mouse; format: in vivo; details: 100 mg/kg orally once a day for 2 weeks, vs solvent control, Dunnett's test p<0.05 (FIG. 6)
# Description: (Method) Human breast cancer-derived MCF-7 cells were subcutaneously implanted in female nude mouse purchased from CLEA Japan, Inc. The effect of compound A on the growth was examined. A 17β-estradiol solution was added dropwise to a small piece of glass microfibre filter GF/B (Whatman, #1821 05) to give a pellet (500 μg/filter). The pellet was subcutaneously implanted in the neck of female Balb/c nude mouse, and MCF-7 cells were subcutaneously implanted in the right back at 5×10^6 cells/mouse. From 7 days after the implantation, compound A was orally administered at 30 mg/kg and 100 mg/kg to nude mice (5 per group) once a day for 2 weeks.
# The 0.5% tragacanth solution used as a solvent was similarly administered to the control. The next day of the final administration, the nude mice were sacrificed under anesthesia, and the subcutaneous tumor was isolated and weighed. The mean tumor weight and standard error of each group were calculated, and statistically analyzed by the Dunnett's test and using the solvent administration group as a control.
# HSP70 [7] = assay: Induction of HSP70 in T-47D cells (Western blot); format: cell-based, human; details: 10 μM, 9 hr; for HSP70 expression, Experiment 1 (T/C, %): control = 100, Experiment 1; for HSP70 expression, Experiment 2 (T/C, %): control = 100, Experiment 2
# Description: (Method) T-47D cells were cultured in a 12-well plate and, at the time point when the cells grew to about 70-80%, compounds A, B, C, D, E and F were each added to 10 μM.
# as §1, with “9” for “6, 9, 12 and 24”
# ubiquitinated protein = assay: Induction of ubiquitinated protein in T-47D cells (Western blot); format: cell-based, human; details: vs DMSO control (FIG. 7)
# Description: DMSO (0.1%) was added to the control. After the addition, the cells were collected 1, 3, 6 and 24 hr later and cell extracts were prepared. Expression of ubiquitinated protein in the cell extracts was examined by Western blot using a ubiquitin specific antibody. T/C (%) was determined using the amount of chemical luminescence on a PVDF film due to an HRP-labeled secondary antibody as the ubiquitinated protein expression amount and the expression amount of the cell extract in the control well as 100.
compound,measurement,setting,value
C=CC(=O)Nc1cc2c(Nc3ccc(F)c(Cl)c3)ncnc2cc1C#CC(C)(C)N1CCN(C)CC1 [compound A],expression of HSP70,HSP70 [1]; 6 hr to 12 hr after treatment,increased in a time-dependent manner
same,expression of HSP70,HSP70 [1]; 24 hr after treatment,markedly decreased
same,HSP70 expression,HSP70 [2],increased
same,expression of HSP90 client proteins,[3],decreased expression
same,growth of MCF-7 cells by E2 stimulation,[4],suppresses the growth
same,cell death due to heat shock,[5],cell death due to heat shock is enhanced
same,tumor weight,[6],significantly decreased
same,"HSP70 expression, Experiment 1 (T/C, %)",HSP70 [7],299%
same,"HSP70 expression, Experiment 2 (T/C, %)",HSP70 [7],895%
same,amount of ubiquitinated protein,"ubiquitinated protein; 1 μM, 1, 3, 6 and 24 hr",did not occur until after 24 hr
same,amount of ubiquitinated protein,"ubiquitinated protein; 3 μM, 1, 3, 6 and 24 hr",increased from 6 hr after the treatment
same,amount of ubiquitinated protein,"ubiquitinated protein; 10 μM, 1, 3, 6 and 24 hr",increased from 6 hr after the treatment
"CC(C)C[C@H](NC(=O)[C@H](Cc1ccccc1)NC(=O)c1cnccn1)B(O)O [bortezomib, reference compound]",amount of ubiquitinated protein,"ubiquitinated protein; 3 μM, 1, 3, 6 and 24 hr",remarkably appeared from 3 hr after the treatment
"C=CC(=O)Nc1cc2c(Nc3ccc(F)c(Cl)c3)ncnc2cc1C#CC(C)(C)N1CCN(CCOC)CC1 [B, N-([4-(3-Chloro-4-fluorophenyl)amino]-7-{3-[4-(2-methoxyethyl)-1-piperazinyl]-3-methyl-1-butynyl}-6-quinazolinyl)acrylamide]","HSP70 expression, Experiment 2 (T/C, %)",HSP70 [7],482%
"CC/C(=C(\c1ccccc1)c1ccc(OCCN(C)C)cc1)c1ccccc1 [tamoxifen, reference compound]",growth of MCF-7 cells by E2 stimulation,[4],suppresses the growth
"CCOc1cc2ncnc(Nc3ccc(F)c(Cl)c3)c2cc1C#CC(C)(C)N(C)C1CCN(C)CC1 [F, (3-Chloro-4-fluorophenyl)-(7-ethoxy-6-{3-methyl-3-[methyl-(1-methyl-4-piperidinyl)amino]-1-butynyl}-4-quinazolinyl)amine]","HSP70 expression, Experiment 1 (T/C, %)",HSP70 [7],141%
"COc1cc2ncnc(Nc3ccc(F)c(Cl)c3)c2cc1OCCCN1CCOCC1 [gefinitib, 4-(3′-Chloro-4′-fluoroanilino)-7-methoxy-6-(3-morpholinopropoxy)quinazoline, reference compound]",HSP70 expression,HSP70 [2],did not show a clear increase
"C=CC(=O)Nc1cc2c(Nc3cccc(C#N)c3)ncnc2cc1C#CC(C)(C)N1CCN(C)CC1 [D, N-{4-[(3-Cyano-phenyl)amino]-7-[3-methyl-3-(4-methyl-1-piperazinyl)-1-butynyl]-6-quinazolinyl}acrylamide]","HSP70 expression, Experiment 2 (T/C, %)",HSP70 [7],446%
"C=CC(=O)Nc1cc2c(Nc3ccc(F)c(Cl)c3)ncnc2cc1C#CC1(N2CCN(C)CC2)CCOCC1 [E, N-{4-[(3-Chloro-4-fluorophenyl)amino]-7-[4-(4-methyl-1-piperazinyl)-4-tetrahydropyranylethynyl]-6-quinazolinyl}acrylamide]","HSP70 expression, Experiment 1 (T/C, %)",HSP70 [7],172%
"C=CC(=O)Nc1cc2c(Nc3ccc(F)c(Cl)c3)ncnc2cc1C#CCN1CCN(C)CC1 [C, N-{4-[(3-Chloro-4-fluorophenyl)amino]-7-[3-(4-methyl-1-piperazinyl)-1-propynyl]-6-quinazolinyl}acrylamide]","HSP70 expression, Experiment 1 (T/C, %)",HSP70 [7],207%
